Experimental data: ChEMBL document CHEMBL1122639, “Racemic and optically active 2,9-dimethyl-5-(m-hydroxyphenyl)morphans and pharmacological comparison with the 9-demethyl homologues” (1984)
Active and inactive are the calls of the source. The rule behind the calls is not given here.

Tests used:
Mus musculus [1] = assay: Compound was administered subcutaneously and was evaluated for opioid antagonist activity (versus morphine) by tail-flick (TF) antagonism test; I denotes Inactive at 30 mg/kg; assay type: functional, organism-based; parameters: dose 30 mg/kg
Mus musculus [2] = assay: Compound was administered subcutaneously and was evaluated for opioid agonist activity by antinociceptive hotplate (HP) assay in mice; I denotes Inactive at 30 mg/kg; assay type: functional, organism-based; parameters: dose 30 mg/kg
Mus musculus [3] = assay: Compound was administered subcutaneously and was evaluated for opioid agonist activity by antinociceptive p-phenylquinone-writhing (PPQ) assay in mice; I denotes Inactive at 30 mg/kg; assay type: functional, organism-based; parameters: dose 30 mg/kg
Mus musculus [4] = assay: Compound was administered subcutaneously and was evaluated for opioid agonist activity by antinociceptive tail-flick (TF) assay in mice; I denotes Inactive at 30 mg/kg; assay type: functional, organism-based; parameters: dose 30 mg/kg
Mus musculus [5] = assay: Compound was administered subcutaneously and was evaluated for opioid agonist activity by antinociceptive hotplate (HP) assay in mice; assay type: functional
Mus musculus [6] = assay: Compound was administered subcutaneously and was evaluated for opioid agonist activity by antinociceptive p-phenylquinone-writhing (PPQ) assay in mice; assay type: functional
Mus musculus [7] = assay: Compound was administered subcutaneously and was evaluated for opioid agonist activity by antinociceptive tail-flick (TF) assay in mice; assay type: functional
Mus musculus [8] = assay: Compound was administered subcutaneously and was evaluated for opioid antagonist activity (versus morphine) by tail-flick (TF) antagonism test; assay type: functional
Mus musculus [9] = assay: Compound was administered subcutaneously and was evaluated for opioid antagonist activity (versus morphine) by tail-flick (TF) antagonism test.; assay type: functional
Mus musculus [10] = assay: Compound was administered subcutaneously and was evaluated for opioid agonist activity by antinociceptive hotplate (HP) assay in mice.; assay type: functional; conditions: sc
Mus musculus [11] = assay: Compound was administered subcutaneously and was evaluated for opioid agonist activity by antinociceptive hotplate (HP) assay in mice,; assay type: functional; conditions: sc
Mus musculus [12] = assay: Compound was administered subcutaneously and was evaluated for opioid agonist activity by antinociceptive p-phenylquinone-writhing (PPQ) assay in mice,; assay type: functional; conditions: sc
Mus musculus [13] = assay: Compound was administered subcutaneously and was evaluated for opioid agonist activity by antinociceptive tail-flick (TF) assay in mice.; assay type: functional; conditions: sc
[14] = Mus musculus, sc, read-out: ED50

## COc1cccc([C@@]23CCC[C@H]([C@H]2C)N(C)CC3)c1
Mus musculus [1]
  ED50: inactive
Mus musculus [2]
  ED50: inactive
Mus musculus [3]
  ED50: inactive
Mus musculus [4]
  ED50: inactive

## Br.CN1CC[C@]2(c3cccc(O)c3)CCC[C@@H]1C2 (stereo in doubt; (+))
Mus musculus [5]
  ED50: 0.4 mg/kg
Mus musculus [6]; [14]
  ED50: 0.5 mg/kg
Mus musculus [7]
  ED50: 1.1 mg/kg

## CN1CC[C@]2(c3cccc(O)c3)CCC[C@@H]1C2 (stereo in doubt; (+))
Mus musculus [1]
  AD50: inactive

## Br.CN1CC[C@]2(c3cccc(O)c3)CCC[C@@H]1C2 (stereo in doubt; (-))
Mus musculus [5]
  ED50: 1.7 mg/kg
Mus musculus [6]
  ED50: 0.9 mg/kg
Mus musculus [7]
  ED50: 5.4 mg/kg

## CN1CC[C@]2(c3cccc(O)c3)CCC[C@@H]1C2 (stereo in doubt; (-))
Mus musculus [1]
  AD50: inactive

## C[C@@H]1[C@H]2CCC[C@@]1(c1cccc(O)c1)CCN2C.Cl (stereo in doubt; form 1)
Mus musculus [8]
  AD50: 4.5 mg/kg

## C[C@@H]1[C@H]2CCC[C@@]1(c1cccc(O)c1)CCN2C (stereo in doubt; form 1)
Mus musculus [2]
  ED50: inactive
Mus musculus [3]
  ED50: inactive
Mus musculus [4]
  ED50: inactive

## C[C@@H]1[C@H]2CCC[C@@]1(c1cccc(O)c1)CCN2C.Cl (stereo in doubt; form 2)
Mus musculus [5]; [14]
  ED50: 10 mg/kg
Mus musculus [6]; [14]
  ED50: 1.9 mg/kg

## C[C@@H]1[C@H]2CCC[C@@]1(c1cccc(O)c1)CCN2C (stereo in doubt; form 2)
Mus musculus [1]
  AD50: inactive
Mus musculus [4]
  ED50: inactive

## C[C@@H]1[C@H]2CCC[C@@]1(c1cccc(O)c1)CCN2C.Cl (stereo in doubt; form 3)
Mus musculus [9]
  AD50: 5 mg/kg
Mus musculus [10]
  ED50: 9.3 mg/kg

## C[C@@H]1[C@H]2CCC[C@@]1(c1cccc(O)c1)CCN2C (stereo in doubt; form 3)
Mus musculus [3]
  ED50: inactive
Mus musculus [4]
  ED50: inactive

## COc1ccc2c3c1O[C@H]1[C@@H](O)C=C[C@H]4[C@@H](C2)N(C)CC[C@@]341 [CODEINE]
Mus musculus [1]
  AD50: inactive
Mus musculus [11]
  ED50: 6.8 mg/kg
Mus musculus [12]
  ED50: 1.4 mg/kg
Mus musculus [13]
  ED50: 14.5 mg/kg

## CN1CC[C@]23c4c5ccc(O)c4O[C@H]2[C@@H](O)C=C[C@H]3[C@H]1C5 [MORPHINE]
Mus musculus [1]
  AD50: inactive
Mus musculus [12]
  ED50: 0.2 mg/kg

## C=CCN1CC[C@]23c4c5ccc(O)c4O[C@H]2[C@@H](O)C=C[C@H]3[C@H]1C5 [NALORPHINE]
Mus musculus [9]
  AD50: 2.6 mg/kg
Mus musculus [6]; [14]
  ED50: 0.6 mg/kg
Mus musculus [4]
  ED50: inactive
